Assay results as given in patent publication US5470714A, “One-step free fatty acid determination method” (Lidak Pharmaceuticals, priority 1993, dated 1995).

T1: I-FABP (native, rat intestinal) (Rattus norvegicus, UniProt P02693)
T1 construct: made in house; host or cells: E. coli BL21 (pET11D)
T1 sequence (P02693 1-132): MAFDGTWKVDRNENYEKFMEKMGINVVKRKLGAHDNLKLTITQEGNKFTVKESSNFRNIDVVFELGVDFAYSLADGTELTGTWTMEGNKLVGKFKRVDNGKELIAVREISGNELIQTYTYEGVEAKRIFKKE


Key:
[1] = molecular target: ADIFAB (Acrylodan derivatized native rat I-FABP, Lys27) (Rattus norvegicus, UniProt P02693); assay: biochemical; assay type: binding; conditions: for rank of Kd, in words: among the long chain FA of Table I
Protocol: In most of the studies FFA was added to ADIFAB, in a buffer (A) consisting of 10 Mm HEPES, 150 Mm NaCI, 5 mM KCI, and 1 mM NaHPO4 at pH 7.4, as the sodium salt of the fatty acid. […] FA bind to most surfaces and values of the total FA concentration ([FAT]) were corrected for FA binding to cuvette and container walls. This binding was determined using trace amounts of […] labeled FA and, separately, ADIFAB florescence to determine the degree of FA loss upon transfer from one container to another. […] To minimize FA binding to surfaces, the monomer concentrations of stock solutions of the Na salts were maintained at pH >9.0 in water, and were warmed to >37° C. just prior to use. The polyunsaturated forms of the FA are subject to oxidation and it was observed that dissociation constants for binding to ADIFAB (Kd) were considerably greater for the oxidized FA. Care was taken to reduce the exposure of the FA salts to oxygen (all handling was carried out under Argon) and to store them at -20° C.
The concentrations of FA in the aqueous phase (FFA) and FA bound to ADIFAB ([FAb ]) were determined from the ratio of fluorescence emission intensities at 432 and 505 nm (R). The values FFA and [FAb ]were related to the ratio of intensities essentially by the method of Grynkiewicz et. al. (Grynkiewicz, G., Poenie, M., & Tsien, R. Y. (1985) J. Biol. Chem. 260, 3440-3450), according to which:
[FAb ]=[ADIFABtotal ]Q(fr)/(1-fr+FRQ) FR
are the ADIFAB intensities with zero and saturating concentrations of FFA, Ro is the intensity ratio in the absence of FFA and Rmax is the value when ADIFAB is saturated.
Because of the limiting solubility of long chain FA in aqueous solution Rmax and Q cannot. in general, be determined directly. To determine Rmax and Q, ADIFAB was titrated with lauric acid (12:0) whose high CMC allowed maximum R values (~10-11) to be measured that were considerably greater than with longer chain FA. From this titration a linear correlation was found between Q and R. Using Q, R pairs predicted by this relationship, a two parameter (Kd and Rmax) least squares analysis of each FA was done using the equation for equilibrium binding;
1/[FAb ]=(Kd/[ADIFAB])/FFA+1/[ADIFAB] (3)
Optimal Q and Rmax values obtained in this analysis were in the range 17-22 and 10 and 13, respectively, with average values of 19.5 and 11.5. Final Kd values for each FA were then determined by least squares analysis of equation (3) with Q and Rmax fixed at 19.5 and 11.5, respectively.
Fluorescence measurements to monitor Acrylodan fluorescence in various solvents, to monitor adduct formation, and to obtain complete spectra were carried out using an SLM 8000C fluorometer. Measurements of the 505/432 intensity ratios (R values) used to monitor the FFA titrations of ADIFAB were done with either the SLM 8000C or a Perkin-Elmer MPF-2A fluorometer.
ADIFAB dose response to FFA and FFA aggregate formation was measured. The ratio of fluorescent intensities at emission wavelengths of 505/432 nm were measured as a function of added Na salts of several FFA. Resulting data are depicted graphically in FIGS. 6A, 6B and 6C. Conditions were similar to those used in FIG. 3 except that 100mM EGTA was used in obtaining the data depicted in FIGS. 6A and 6B, while the data depicted in FIG. 6C was obtained using 1 mM CaCl2. Measured R values were used to determine FFA and [FFAb]using equations (1) and (2). The solid curves through the data of FIGS. 6A and 6C represent best fits of equation (3) obtained using a non-linear least squares algorithm. Aggregate formation was detected by measuring 90° light scattering from FFA in the buffer of FIG. 3 containing no added calcium and titrated with the Na salts of the FFA as described above, see FIG. 6B. The smoothed curves through the data, intended to guide-the-eye, indicate that aggregate formation, as detected by a sharp increase in light scattering, is approximately coincident with the maximum R value observed in the experiment related to FIG. 6A. […]

[2] = molecular target: T1, I-FABP (native, rat intestinal); assay: Tryptophan fluorescence of native I-FABP on addition of FFA; assay type: binding; conditions: as much as
Protocol: In early work, cloning was carried out using a cDNA library from neo-natal rat intestine purchased from STRATAGENE (11099 North Torrey Pines Rd., La Jolla, CA 92037). The library is carried by the LAMBDA ZAP II vector and was used with the E. coil host strain XL 1Blue which is supplied with the library. The recombinant clone was identified with an oligonucleotide probe based upon the published sequence of the I-FABP DNA (Lowe, J. B., Sacchettini, J. C., Laposata, M., McQuillan, J. J. and Gordon, J. I. J. Biol. Chem. 262:5931, 1987) and sequencing of 5and 3regions was used to verify the identity and completeness of the gene. […] The I-FABP gene was removed from the lambda Zap vector and inserted into a PET expression vector (PET11 D) purchased from Novagen and the protein was expressed using the E. coil strains (BL2 1) also from Novagen (Madison, WI, USA). I-FABP is isolated from E. coil and purified as described, Lowe, J. B., Sacchettini, J. C., Laposata, M., McQuillan, J. J. and Gordon, J. I. J. Biol. Chem. 262:5931, 1987. In this procedure cells, after a 3-hour culture, are lysed, centrifuged to remove cell debris and the pellet frozen at -70 °C. The frozen pellet was allowed to thaw in the presence of a lysing buffer composed of 50mM Tris, 0.5mM EDTA, 0.5mM PMSF, 0.1% Triton X100, at pH 8.0. This was centrifuged at 20,000 g. for 45 minutes and the pellet was discarded. The lysate was then subjected to two rounds (50% and 70%) of ammonium sulfate precipitation and the supernatant from the 70% material was desalted and concentrated using an Amicon ultrafiltration apparatus with a YM10 filter. The flitrate was then subjected to DEAE-Sephadex (A50), followed by Sephadex G-75 chromatography and the low molecular weight fractions were saved. This material gives a single band on 12% PAGE and an amino acid analysis of this material was consistent with the amino acid sequence of I-FABP. […] The addition of FFA (oleate, stearate, or palmitate) reduced the tryptophan fluorescence of the native protein by as much as 40%.

[3] = Fluorescence response of fluorescent-FABP probes to fatty acid binding; assay type: biochemical
Text: Principles and exemplary methods for constructing probes as described and defined herein and methods for determining FFA levels are described in detail below. Using these principles fourteen different fluorescent-FABP derivatives have been constructed. This has been done using 3 different native FABPs (rat intestine (I-FABP), human adipocyte (A-FABP), and human heart (H-FABP)) plus 4 site-specific mutants of two of these (I-FABP, (Thr83Cys83, Thr81Cys81, Lys27Cys27 and H-FABP, Thr27Lys27), and these proteins have been derivatized with 4 different fluorophores (acrylodan, danzyl aziridine, 4-[N-[(2-iodoacetoxy)ethyl]-N-methylamino]-7-nitrobenz-2-oxa1,3-diazole ester (IANBDE), 4-[N-[(2-iodoacetoxy)ethyl]-N-methylamino]-7-nitrobenz-2-oxa-1,3-diazole these derivatives can serve as FFA probes, to some degree. To date, however, ADIFAB remains the one that has optimal properties for current applications. Obviously, by occupying, partially, the binding site with a fluorophore, FA must compete for its site and therefore the FA binding constant for the FABP may be altered from the native protein. This is indeed the case for ADIFAB for which the Kd is about 10 fold greater than for the native protein. So long as FA can bind, however, the derivatized molecule can still function as a FFA probe and so long as the probe's dynamic range is sufficient (as it is for ADIFAB, IANBDE and IANBDA) then FFA levels over a wide range, including those that are physiologic, can be measured.
The Cys27 mutant of I-FABP (Lys27 to Cys27) with acrylodan, IANBDE and IANBDA have also been labeled using the technique described. […] This is the behavior predicted from the construction principles set forth herein, and reflects the shorter tethering arm to Cys27 as compared to Lys27 which prevents the deeper insertion into the binding site that is observed in the Lys27 derivative. […] Thus, those skilled in the art can with considerable confidence predict whether protein modifications and/or choice of label will result in a FFA responsive probe.
Site-directed mutagenesis was used to introduce a cysteine residue at positions 82 or 84, in place of the threonine residues that are normally at this position. Mutagenesis was carried out by annealing a synthetic prirner with a single mismatched base to the above derived expression vector. The primer was extended and ligated in vitro, and the resulting heteroduplex was used to transfect the host strain. The transfected host was screened for the mutated DNA by hybridization with the mutating oligonucleotide. Mutated plasmid DNA was isolated, retransformed into the host strain, and its structure confirmed by sequencing the recombinant DNA in regions defined by probes flanking the mutated region. This modified protein was expressed in the same system and purified by the same methods as for the native protein. Typical yields of purified protein were approximately 50 mg/liter cell culture. The mutated I-FABP protein was fluorescently derivatized by inserting a fluorescent group (which reacts specifically with free SH groups) at the newly created cysteine residue. The cysteine residue was inserted at positions 82 (replacing a threonine residue) and/or at residue 84 (also a threonine residue) since both these positions face outward from the FFA binding pocket but are in close proximity to the tryptophan at position 83 (about 3.5Å lateral separation along the b strand and about 10Å vertical separation between the centers of the tryptophan and fluorescent residues). […] Thus, either the direct emission of the fluorescent group and/or the rate of resonance energy transfer between Trp83 and the fluorescent group was postulated to change. In a non-limiting prior specific example, the dansyl derivative ACRYLODAN®(6-acryloly-2dimethylamenonaphthalene) was used to modify the mutated FABP and this probe was designated FAD508.
ADIFAB dose response to FFA and FFA aggregate formation was measured. […]

[4] = FA-ADIFAB Dissociation Constants, Kd, no added calcium, FIG. 6A, buffer A pH 7.4

responsiveness of the probe to FA binding, in words [3]	Molecule	Kd [1, 4]	rank of Kd, in words [1]	reduction of the tryptophan fluorescence of the native protein [2]	other results
	CCCCCCCC/C=C\CCCCCCCC(=O)O [OLEATE, oleate]	0.28 ± 0.01 µM	smallest Kds	≤ 40%	Kd ([1]; Kd in the presence of calcium, 1 mM calcium): 0.31 µM
	CCCCCCCCCCCCCCCCCC(=O)O [stearate]			≤ 40%	
	CCCCCCCCCCCCCCCC(=O)O [PALMITATE, palmitate]	0.32 ± 0.01 µM	smallest Kds	≤ 40%	Kd relative to oleate (fold greater than oleate) ([1]; normalized to oleate): about 1.1 fold
only poorly responsive	Native A-FABP labeled with acrylodan: Native A-FABP which contains two cysteines, was labeled with acrylodan (conjugate, UniProt P15090 2-132, looked up, acrylodan label) Fatty acid-binding protein, …: CDAFVGTWKLVSSENFDDYMKEVGVGFATRKVAGMAKPNMIISVNGDVITIKSESTFKNTEISFILGQEFDEVTADDRKVKSTITLDGGVLVHVQKWDGKSTTIKRKREDDKLVVECVMKGVTSTRVYERA				
only poorly responsive	Native A-FABP labeled with NBD: Native A-FABP labeled with the N-[7-(4-nitrobenzo-2-oxa-1,3-diazol) (NBD) moieties (conjugate, UniProt P15090 2-132, looked up, NBD label, Native A-FABP labeled with the N-[7-(4-nitrobenzo-2-oxa-1,3-diazol) (NBD) moieties) Fatty acid-binding protein, …: CDAFVGTWKLVSSENFDDYMKEVGVGFATRKVAGMAKPNMIISVNGDVITIKSESTFKNTEISFILGQEFDEVTADDRKVKSTITLDGGVLVHVQKWDGKSTTIKRKREDDKLVVECVMKGVTSTRVYERA				

Molecule	responsiveness of the probe to FA binding, in words [3]	Kd [1, 4]	rank of Kd, in words [1]	reduction of the tryptophan fluorescence of the native protein [2]	other results
Cys27 mutant of I-FABP with acrylodan: Cys27 mutant of I-FABP (Lys27 to Cys27) with acrylodan (conjugate, UniProt P02693 2-132, looked up, variant K27C, acrylodan label) Fatty acid-binding protein, …: AFDGTWKVDRNENYEKFMEKMGINVVCRKLGAHDNLKLTITQEGNKFTVKESSNFRNIDVVFELGVDFAYSLADGTELTGTWTMEGNKLVGKFKRVDNGKELIAVREISGNELIQTYTYEGVEAKRIFKKE	the relative change upon FA binding is smaller than for ADIFAB				
